# According to ChEMBL document CHEMBL6153147 (J Med Chem, 2025):
# Experiments:
# [1] = AUC (0 to t) in C57BL/6 mouse at 10 mg/kg, po measured for 0.5 to […] htr by LC-MS/MS analysis; assay type: ADME, organism-based; conditions: in vivo, time 0.5-12 hrs
# [2] = MRT (0 to t) in C57BL/6 mouse at 1 mg/kg, iv measured for 0.5 to 12 htr by LC-MS/MS analysis; assay type: ADME, organism-based; conditions: in vivo, time 0.5-12 hrs
# [3] = Effect on mitochondrial membrane integrity in HEK293T cells at 10 uM incubated for 24 hrs by JC-1 dye based analysis; assay type: toxicity, cell-based; conditions: human, hek-293t
# [4] = test system: K562; test: cells; conditions: Homo sapiens
# [5] = Tmax in C57BL/6 mouse at 1 mg/kg, iv measured for 0.5 to 12 htr by LC-MS/MS analysis; assay type: ADME, organism-based; conditions: in vivo, time 0.5-12 hrs
# [6] = AUC (0 to infinity) in C57BL/6 mouse at 1 mg/kg, iv measured for 0.5 to 12 htr by LC-MS/MS analysis; assay type: ADME, organism-based; conditions: in vivo, time 0.5-12 hrs
# [7] = Half life in C57BL/6 mouse at 1 mg/kg, iv measured for 0.5 to 12 htr by LC-MS/MS analysis; assay type: ADME, organism-based; conditions: in vivo, time 0.5-12 hrs
# [8] = target: Serine/threonine-protein kinase PLK1 (Homo sapiens, UniProt P53350); test: Inhibition of human PLK1 using ATF2 as substrate incubated for 40 mins in presence of [gamma-33P]ATP/Mg acetate by scintillation counting analysis
# [9] = Oral bioavailability in C57BL/6 mouse at 10 mg/kg measured for 0.5 to […] htr by LC-MS/MS analysis; assay type: ADME, organism-based; conditions: in vivo, time 0.5-12 hrs
# [10] = test system: HEK-293T; test: Cytotoxicity against HEK293T cells by CCK8 assay; assay type: toxicity, cell-based; conditions: human, dose 0.1-30 µM
# [11] = test system: NCI-H460; test: cells; conditions: Homo sapiens
# [12] = Cmax in C57BL/6 mouse at 1 mg/kg, iv measured for 0.5 to […] htr by LC-MS/MS analysis; assay type: ADME, organism-based; conditions: in vivo, time 0.5-12 hrs
# [13] = target: Serine/threonine-protein kinase PLK2 (Homo sapiens, UniProt Q9NYY3); test: Inhibition of human PLK2 using ATF2 as substrate incubated for 40 mins in presence of [gamma-33P]ATP/Mg acetate by scintillation counting analysis
# [14] = Effect on F-actin cytoskeleton in HEK293T cells at 10 uM incubated for 24 hrs by immunofluorescence based analysis; assay type: toxicity, cell-based; conditions: human, hek-293t
# [15] = Cytotoxicity against HEK293T cells assessed as inhibition of cell viability by CCK8 assay; assay type: toxicity, cell-based, HEK-293T; conditions: human
# [16] = Selectivity ratio of IC50 for inhibition of human PLK2 using ATF2 as substrate to IC50 for inhibition of human PLK1 using ATF2 as substrate
# [17] = test system: SW-620; test: cells; conditions: Homo sapiens
# [18] = AUC (0 to t) in C57BL/6 mouse at 1 mg/kg, iv measured for 0.5 to […] htr by LC-MS/MS analysis; assay type: ADME, organism-based; conditions: in vivo, time 0.5-12 hrs
# [19] = test system: A549; test: cells; conditions: Homo sapiens
# [20] = Cmax in C57BL/6 mouse at 10 mg/kg, po measured for 0.5 to […] htr by LC-MS/MS analysis; assay type: ADME, organism-based; conditions: in vivo, time 0.5-12 hrs
# [21] = MRT (0 to t) in C57BL/6 mouse at 10 mg/kg, po measured for 0.5 to 12 htr by LC-MS/MS analysis; assay type: ADME, organism-based; conditions: in vivo, time 0.5-12 hrs
# [22] = test system: HEK-293T; test: Effect on mitochondrial membrane potential in HEK293T cells at 10 uM incubated for 24 hrs by MitoTracker Red probe based analysis; assay type: toxicity, cell-based; conditions: human
# [23] = target: Voltage-gated inwardly rectifying potassium channel KCNH2 (Homo sapiens, UniProt Q12809); test: Inhibition of hERG transfected in CHO cells; assay type: toxicity, cell-based
# [24] = Cytotoxicity against HEK293T cells assessed as cell viability at 30 uM by CCK8 assay relative to control; assay type: toxicity, cell-based, HEK-293T; conditions: human, read-out: Activity
# [25] = Volume of distribution at steady state in C57BL/6 mouse at 1 mg/kg, iv measured for 0.5 to 12 htr by LC-MS/MS analysis; assay type: ADME, organism-based; conditions: in vivo, time 0.5-12 hrs, read-out: Vdss
# [26] = Selectivity ratio of IC50 for inhibition of human PLK3 using ATF2 as substrate to IC50 for inhibition of human PLK1 using ATF2 as substrate
# [27] = test system: HL-60; test: cells; conditions: Homo sapiens
# [28] = Solubility of compound in 0.01 M PBS at pH 7.4 assessed as fold increase equilibrated for 12 hrs by UV spectrophotometry relative to BI 2536; assay type: physicochemical; conditions: buffer, pH 7.4, 12 h
# [29] = Clearance in C57BL/6 mouse at 1 mg/kg, iv measured for 0.5 to […] htr by LC-MS/MS analysis; assay type: ADME, organism-based; conditions: in vivo, time 0.5-12 hrs
# [30] = test system: CCRF-CEM; test: cells; conditions: Homo sapiens
# [31] = test system: KG-1; test: cells; conditions: Homo sapiens
# [32] = AUC (0 to infinity) in C57BL/6 mouse at 10 mg/kg, po measured for 0.5 to 12 htr by LC-MS/MS analysis; assay type: ADME, organism-based; conditions: in vivo, time 0.5-12 hrs
# [33] = target: Serine/threonine-protein kinase PLK3 (Homo sapiens, UniProt Q9H4B4); test: Inhibition of human PLK3 using ATF2 as substrate incubated for 40 mins in presence of [gamma-33P]ATP/Mg acetate by scintillation counting analysis
# [34] = Tmax in C57BL/6 mouse at 10 mg/kg, po measured for 0.5 to 12 htr by LC-MS/MS analysis; assay type: ADME, organism-based; conditions: in vivo, time 0.5-12 hrs
# [35] = Half life in C57BL/6 mouse at 10 mg/kg, po measured for 0.5 to 12 htr by LC-MS/MS analysis; assay type: ADME, organism-based; conditions: in vivo, time 0.5-12 hrs
# [36] = test system: PC-9; test: cells; conditions: Homo sapiens
# [37] = C0 in C57BL/6 mouse at 1 mg/kg, iv measured for 0.5 to 12 htr by LC-MS/MS analysis; assay type: ADME, organism-based; conditions: in vivo, time 0.5-12 hrs
# Chain of Serine/threonine-protein kinase PLK3 (Q9H4B4 whole entry): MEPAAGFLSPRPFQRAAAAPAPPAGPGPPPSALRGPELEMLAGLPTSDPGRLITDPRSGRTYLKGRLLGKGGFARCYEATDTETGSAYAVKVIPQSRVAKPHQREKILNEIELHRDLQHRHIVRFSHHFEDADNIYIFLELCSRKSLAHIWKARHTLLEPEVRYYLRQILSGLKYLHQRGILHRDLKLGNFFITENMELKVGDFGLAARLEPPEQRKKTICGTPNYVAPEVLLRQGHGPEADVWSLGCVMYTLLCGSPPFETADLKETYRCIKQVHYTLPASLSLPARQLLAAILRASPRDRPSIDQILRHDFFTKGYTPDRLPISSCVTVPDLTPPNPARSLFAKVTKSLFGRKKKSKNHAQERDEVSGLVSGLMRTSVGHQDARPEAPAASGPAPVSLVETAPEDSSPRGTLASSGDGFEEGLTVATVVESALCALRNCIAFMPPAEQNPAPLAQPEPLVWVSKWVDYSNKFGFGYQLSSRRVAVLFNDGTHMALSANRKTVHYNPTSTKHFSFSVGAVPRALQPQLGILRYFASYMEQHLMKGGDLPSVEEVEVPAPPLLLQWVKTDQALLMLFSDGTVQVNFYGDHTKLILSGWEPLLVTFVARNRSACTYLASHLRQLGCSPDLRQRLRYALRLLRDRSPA
# Chain of Serine/threonine-protein kinase PLK1 (P53350 whole entry): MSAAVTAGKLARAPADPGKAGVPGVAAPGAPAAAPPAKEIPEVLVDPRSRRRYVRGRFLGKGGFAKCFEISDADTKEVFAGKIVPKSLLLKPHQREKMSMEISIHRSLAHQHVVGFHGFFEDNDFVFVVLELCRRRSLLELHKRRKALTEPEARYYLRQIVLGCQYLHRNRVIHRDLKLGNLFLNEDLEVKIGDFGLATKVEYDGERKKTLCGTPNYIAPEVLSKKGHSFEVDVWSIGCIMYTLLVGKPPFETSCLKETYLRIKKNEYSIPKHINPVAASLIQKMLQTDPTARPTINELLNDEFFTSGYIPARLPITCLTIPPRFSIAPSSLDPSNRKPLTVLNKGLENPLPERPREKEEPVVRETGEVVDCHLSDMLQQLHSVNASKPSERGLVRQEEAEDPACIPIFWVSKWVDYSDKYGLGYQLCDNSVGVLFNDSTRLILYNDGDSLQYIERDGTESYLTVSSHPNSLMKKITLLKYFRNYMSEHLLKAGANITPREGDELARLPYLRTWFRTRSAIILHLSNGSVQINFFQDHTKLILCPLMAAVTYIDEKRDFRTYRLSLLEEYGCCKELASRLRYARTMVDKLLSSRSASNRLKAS
# Chain of Serine/threonine-protein kinase PLK2 (Q9NYY3 whole entry): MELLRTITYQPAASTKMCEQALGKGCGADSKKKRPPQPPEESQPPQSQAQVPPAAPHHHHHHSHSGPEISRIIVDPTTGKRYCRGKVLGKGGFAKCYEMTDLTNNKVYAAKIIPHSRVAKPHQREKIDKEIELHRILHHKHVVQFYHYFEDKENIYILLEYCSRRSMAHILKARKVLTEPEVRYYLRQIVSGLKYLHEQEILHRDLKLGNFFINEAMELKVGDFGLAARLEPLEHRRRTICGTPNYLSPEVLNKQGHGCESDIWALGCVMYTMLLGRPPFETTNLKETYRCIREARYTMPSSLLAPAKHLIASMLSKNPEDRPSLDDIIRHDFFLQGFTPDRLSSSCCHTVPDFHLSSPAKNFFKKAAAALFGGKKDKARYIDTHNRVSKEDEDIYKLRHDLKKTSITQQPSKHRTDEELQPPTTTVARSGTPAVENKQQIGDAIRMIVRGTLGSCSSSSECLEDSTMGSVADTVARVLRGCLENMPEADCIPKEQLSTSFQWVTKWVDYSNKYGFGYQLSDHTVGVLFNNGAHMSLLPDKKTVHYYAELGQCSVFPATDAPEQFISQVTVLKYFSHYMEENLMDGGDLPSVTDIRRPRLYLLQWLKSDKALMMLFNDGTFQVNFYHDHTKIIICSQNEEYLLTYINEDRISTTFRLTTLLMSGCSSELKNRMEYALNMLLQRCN
# Chain of Voltage-gated inwardly rectifying potassium channel KCNH2 (Q12809 whole entry): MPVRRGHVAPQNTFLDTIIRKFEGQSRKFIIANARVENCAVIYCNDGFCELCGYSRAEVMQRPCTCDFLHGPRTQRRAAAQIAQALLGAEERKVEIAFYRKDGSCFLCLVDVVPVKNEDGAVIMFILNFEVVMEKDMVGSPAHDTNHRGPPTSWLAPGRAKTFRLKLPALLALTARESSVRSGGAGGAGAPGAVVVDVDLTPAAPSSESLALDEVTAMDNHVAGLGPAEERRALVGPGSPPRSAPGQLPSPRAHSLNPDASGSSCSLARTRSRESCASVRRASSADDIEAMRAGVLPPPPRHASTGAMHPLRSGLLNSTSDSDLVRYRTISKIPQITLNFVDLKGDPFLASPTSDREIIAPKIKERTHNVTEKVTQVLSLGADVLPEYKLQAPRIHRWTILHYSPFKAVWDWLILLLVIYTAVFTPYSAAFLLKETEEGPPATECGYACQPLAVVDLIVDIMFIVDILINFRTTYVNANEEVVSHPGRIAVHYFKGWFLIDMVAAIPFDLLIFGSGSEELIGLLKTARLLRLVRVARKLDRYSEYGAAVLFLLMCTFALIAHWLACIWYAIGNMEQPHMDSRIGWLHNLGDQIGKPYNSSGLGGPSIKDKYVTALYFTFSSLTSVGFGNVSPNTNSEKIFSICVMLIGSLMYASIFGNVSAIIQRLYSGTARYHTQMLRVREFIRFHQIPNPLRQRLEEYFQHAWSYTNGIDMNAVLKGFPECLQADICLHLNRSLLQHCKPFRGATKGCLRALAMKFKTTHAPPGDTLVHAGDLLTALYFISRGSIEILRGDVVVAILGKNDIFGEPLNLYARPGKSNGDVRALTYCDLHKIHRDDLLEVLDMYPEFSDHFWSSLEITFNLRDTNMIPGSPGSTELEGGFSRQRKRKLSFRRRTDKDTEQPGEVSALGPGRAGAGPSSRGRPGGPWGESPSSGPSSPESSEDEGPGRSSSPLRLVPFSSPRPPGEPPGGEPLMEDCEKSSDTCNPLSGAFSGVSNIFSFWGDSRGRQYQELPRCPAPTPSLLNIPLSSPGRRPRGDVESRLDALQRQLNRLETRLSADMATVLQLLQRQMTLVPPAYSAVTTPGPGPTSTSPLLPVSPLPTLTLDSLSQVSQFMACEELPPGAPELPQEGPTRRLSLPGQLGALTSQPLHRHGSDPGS
structure (smiles),measurement,setting,value
CC[C@@H]1C(=O)N(C)c2cnc(Nc3cc(N4CCN(C)CC4)ccc3OCCCO)nc2N1C1CCCC1,AUC(0-t),[1],449 ng·h/mL
same,MRT last,[2],34.8 min
same,Activity,[3],Non-toxic
same,IC50,[4],0.67 nM
same,Tmax,[5],4.98 min
same,AUC(0-inf),[6],228 ng·h/mL
same,half-life,[7],40.8 min
same,IC50,[8],20 nM
same,bioavailability,[9],20%
same,Activity,[10],Dose-dependent-effect
same,IC50,[11],32 nM
same,Cmax,[12],471 ng/mL
same,IC50,[13],4940 nM
same,Activity,[14],Non-toxic
same,IC50,[15],38200 nM
same,ratio,[16],247
same,IC50,[17],217 nM
same,AUC(0-t),[18],226 ng·h/mL
same,IC50,[19],154 nM
same,Cmax,[20],201 ng/mL
same,MRT last,[21],108 min
same,Activity,[22],Non-toxic
same,IC50,[23],13300 nM
same,viability at 30 µM,[24],16.5%
same,Vd,[25],2.5 L/kg
same,ratio,[26],161
same,IC50,[27],53 nM
same,fold change (FC),[28],> 2
same,clearance,[29],73 mL/min/kg
same,IC50,[30],40 nM
same,IC50,[31],> 10000 nM
same,AUC(0-inf),[32],452 ng·h/mL
same,IC50,[33],3230 nM
same,Tmax,[34],25.2 min
same,half-life,[35],66 min
same,IC50,[36],164 nM
same,C0,[37],753 ng/mL
CN1CCN(c2ccc(OC(F)(F)F)c(Nc3ncc4c(n3)-c3c(c(C(N)=O)nn3CCO)CC4)c2)CC1 [ONVANSERTIB],IC50,[4],12 nM
same,IC50,[11],36 nM
same,IC50,[17],18 nM
same,IC50,[19],45 nM
same,IC50,[27],89 nM
same,IC50,[30],34 nM
same,IC50,[31],8660 nM
same,IC50,[36],58 nM
CC[C@@H]1C(=O)N(C)c2cnc(Nc3cc(N4CCN(C)CC4)cc(F)c3OCCO)nc2N1C1CCCC1,IC50,[4],5190 nM
same,IC50,[8],11 nM
same,IC50,[11],76 nM
same,IC50,[13],> 10000 nM
same,ratio,[16],> 952
same,IC50,[17],6.8 nM
same,IC50,[19],57 nM
same,ratio,[26],306
same,IC50,[27],39 nM
same,IC50,[30],64 nM
same,IC50,[31],> 10000 nM
same,IC50,[33],3220 nM
same,IC50,[36],82 nM
